# Assay results from PubChem BioAssay (NCI).
#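 The compound was tested at five concentrations on cells cultured in 96-well plates, with a 48-hour exposure period. Here, GI50 denotes the concentration required for 50% inhibition of growth. TGI: concentration producing complete growth inhibition.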 Where a SMILES comes first, the peptide text is derived from it. [ ]: non-standard residue; d: D form. The star is where a group is joined. Phe(4-NO2) = N[CH](Cc1ccc([N+](=O)[O-])cc1)C(=O)O; Boc = CC(C)(C)OC(=O)*; OtBu = CC(C)(C)O*
# Legend:
# Test in all cases: NCI tumour cell line growth inhibition, 48 h
# 786-0 renal = tested on: 786-0 renal
# A549 NSCLC = tested on: A549 NSCLC
# ACHN renal = tested on: ACHN renal
# CAKI-1 renal = tested on: CAKI-1 renal
# CCRF-CEM leukemia = tested on: CCRF-CEM leukemia
# COLO 205 colon = tested on: COLO 205 colon
# DU-145 prostate = tested on: DU-145 prostate
# EKVX NSCLC = tested on: EKVX NSCLC
# HCC-2998 colon = tested on: HCC-2998 colon
# HCT-116 colon = tested on: HCT-116 colon
# HCT-15 colon = tested on: HCT-15 colon
# HL-60(TB) leukemia = tested on: HL-60(TB) leukemia
# HOP-62 NSCLC = tested on: HOP-62 NSCLC
# HOP-92 NSCLC = tested on: HOP-92 NSCLC
# HT29 colon = tested on: HT29 colon
# IGROV1 ovarian = tested on: IGROV1 ovarian
# K-562 leukemia = tested on: K-562 leukemia
# KM12 colon = tested on: KM12 colon
# LOX IMVI melanoma = tested on: LOX IMVI melanoma
# M14 melanoma = tested on: M14 melanoma
# MALME-3M melanoma = tested on: MALME-3M melanoma
# MCF7 breast = tested on: MCF7 breast
# MDA-MB-231 breast = tested on: MDA-MB-231 breast
# MDA-MB-435 = tested on: MDA-MB-435
# MDA-N = tested on: MDA-N
# MOLT-4 leukemia = tested on: MOLT-4 leukemia
# NCI-H226 lung = tested on: NCI-H226 lung
# NCI-H23 lung = tested on: NCI-H23 lung
# NCI-H460 lung = tested on: NCI-H460 lung
# NCI-H522 lung = tested on: NCI-H522 lung
# NCI/ADR-RES ovarian = tested on: NCI/ADR-RES ovarian
# OVCAR-3 ovarian = tested on: OVCAR-3 ovarian
# OVCAR-4 ovarian = tested on: OVCAR-4 ovarian
# OVCAR-5 ovarian = tested on: OVCAR-5 ovarian
# OVCAR-8 ovarian = tested on: OVCAR-8 ovarian
# PC-3 prostate = tested on: PC-3 prostate
# RPMI-8226 leukemia = tested on: RPMI-8226 leukemia
# RXF 393 renal = tested on: RXF 393 renal
# SF-268 CNS = tested on: SF-268 CNS
# SF-295 CNS = tested on: SF-295 CNS
# SF-539 CNS = tested on: SF-539 CNS
# SK-MEL-2 melanoma = tested on: SK-MEL-2 melanoma
# SK-MEL-28 melanoma = tested on: SK-MEL-28 melanoma
# SK-MEL-5 melanoma = tested on: SK-MEL-5 melanoma
# SK-OV-3 ovarian = tested on: SK-OV-3 ovarian
# SN12C renal = tested on: SN12C renal
# SNB-19 CNS = tested on: SNB-19 CNS
# SNB-75 CNS = tested on: SNB-75 CNS
# SR leukemia = tested on: SR leukemia
# SW-620 colon = tested on: SW-620 colon
# T-47D breast = tested on: T-47D breast
# TK-10 renal = tested on: TK-10 renal
# U251 CNS = tested on: U251 CNS
# UACC-257 melanoma = tested on: UACC-257 melanoma
# UACC-62 melanoma = tested on: UACC-62 melanoma
# UO-31 renal = tested on: UO-31 renal
# A498 renal = tested on: A498 renal
# HS 578T breast = tested on: HS 578T breast
structure (smiles),measurement,setting,value
CC(=O)NC(CCC(=O)OC(C)(C)C)C(=O)NC(CCC(=O)OC(C)(C)C)C(=O)NC(Cc1ccc([N+](=O)[O-])cc1)C(=O)NC(CCCCNC(=O)OC(C)(C)C)C(=O)NC(CCCCNC(=O)OC(C)(C)C)C(=O)NCC(=O)O (configuration not stated) (Ac-E(OtBu)E(OtBu)[Phe(4-NO2)]K(Boc)K(Boc)G-OH; configuration not given here),TGI,786-0 renal,> 100 µM
same,TGI,A549 NSCLC,> 100 µM
same,TGI,ACHN renal,> 100 µM
same,TGI,CAKI-1 renal,> 100 µM
same,TGI,CCRF-CEM leukemia,> 100 µM
same,TGI,COLO 205 colon,> 100 µM
same,TGI,DU-145 prostate,> 100 µM
same,TGI,EKVX NSCLC,> 100 µM
same,TGI,HCC-2998 colon,> 100 µM
same,TGI,HCT-116 colon,> 100 µM
same,TGI,HCT-15 colon,> 100 µM
same,TGI,HL-60(TB) leukemia,> 100 µM
same,TGI,HOP-62 NSCLC,> 100 µM
same,TGI,HOP-92 NSCLC,> 100 µM
same,TGI,HT29 colon,> 100 µM
same,TGI,IGROV1 ovarian,> 100 µM
same,TGI,K-562 leukemia,> 100 µM
same,TGI,KM12 colon,> 100 µM
same,TGI,LOX IMVI melanoma,> 100 µM
same,TGI,M14 melanoma,53.5 µM
same,TGI,MALME-3M melanoma,> 100 µM
same,TGI,MCF7 breast,> 100 µM
same,TGI,MDA-MB-231 breast,> 100 µM
same,TGI,MDA-MB-435,> 100 µM
same,TGI,MDA-N,> 100 µM
same,TGI,MOLT-4 leukemia,> 100 µM
same,TGI,NCI-H226 lung,> 100 µM
same,TGI,NCI-H23 lung,> 100 µM
same,TGI,NCI-H460 lung,> 100 µM
same,TGI,NCI-H522 lung,> 100 µM
same,TGI,NCI/ADR-RES ovarian,> 100 µM
same,TGI,OVCAR-3 ovarian,> 100 µM
same,TGI,OVCAR-4 ovarian,> 100 µM
same,TGI,OVCAR-5 ovarian,> 100 µM
same,TGI,OVCAR-8 ovarian,> 100 µM
same,TGI,PC-3 prostate,> 100 µM
same,TGI,RPMI-8226 leukemia,> 100 µM
same,TGI,RXF 393 renal,> 100 µM
same,TGI,SF-268 CNS,> 100 µM
same,TGI,SF-295 CNS,> 100 µM
same,TGI,SF-539 CNS,> 100 µM
same,TGI,SK-MEL-2 melanoma,> 100 µM
same,TGI,SK-MEL-28 melanoma,> 100 µM
same,TGI,SK-MEL-5 melanoma,> 100 µM
same,TGI,SK-OV-3 ovarian,> 100 µM
same,TGI,SN12C renal,> 100 µM
same,TGI,SNB-19 CNS,> 100 µM
same,TGI,SNB-75 CNS,> 100 µM
same,TGI,SR leukemia,> 100 µM
same,TGI,SW-620 colon,> 100 µM
same,TGI,T-47D breast,> 100 µM
same,TGI,TK-10 renal,> 100 µM
same,TGI,U251 CNS,> 100 µM
same,TGI,UACC-257 melanoma,> 100 µM
same,TGI,UACC-62 melanoma,> 100 µM
same,TGI,UO-31 renal,> 100 µM
CCCc1cc2c(cc1O)CC[C@@H]1[C@@H]2CC[C@]2(C)[C@@H](O)CC[C@@H]12,TGI,786-0 renal,26.6 µM
same,TGI,A498 renal,32.3 µM
same,TGI,A549 NSCLC,22.9 µM
same,TGI,ACHN renal,25.6 µM
same,TGI,CAKI-1 renal,24.8 µM
same,TGI,CCRF-CEM leukemia,20.9 µM
same,TGI,COLO 205 colon,34.5 µM
same,GI50,DU-145 prostate,18.8 µM
same,TGI,DU-145 prostate,32.8 µM
same,TGI,EKVX NSCLC,26.2 µM
same,TGI,HCC-2998 colon,33 µM
same,GI50,HCT-116 colon,6.54 µM
same,TGI,HCT-116 colon,19.8 µM
same,TGI,HCT-15 colon,18.1 µM
same,TGI,HL-60(TB) leukemia,29.7 µM
same,GI50,HOP-62 NSCLC,16 µM
same,TGI,HOP-62 NSCLC,34.2 µM
same,TGI,HOP-92 NSCLC,33.6 µM
same,TGI,HS 578T breast,32.3 µM
same,TGI,HT29 colon,31.1 µM
same,TGI,IGROV1 ovarian,30.2 µM
same,TGI,K-562 leukemia,13.6 µM
same,TGI,KM12 colon,22.6 µM
same,TGI,LOX IMVI melanoma,24 µM
same,TGI,M14 melanoma,23 µM
same,TGI,MALME-3M melanoma,27.9 µM
same,TGI,MDA-MB-231 breast,40.8 µM
same,GI50,MDA-MB-435,2.19 µM
same,TGI,MDA-MB-435,5.1 µM
same,TGI,MDA-N,6.05 µM
same,TGI,MOLT-4 leukemia,20.4 µM
same,TGI,NCI-H226 lung,27.5 µM
same,TGI,NCI-H23 lung,29.2 µM
same,TGI,NCI-H460 lung,24.4 µM
same,TGI,NCI-H522 lung,24.9 µM
same,TGI,NCI/ADR-RES ovarian,27.1 µM
same,TGI,OVCAR-3 ovarian,24.4 µM
same,TGI,OVCAR-4 ovarian,32.7 µM
same,TGI,OVCAR-5 ovarian,34.7 µM
same,TGI,OVCAR-8 ovarian,29.1 µM
same,TGI,PC-3 prostate,34.5 µM
same,TGI,RXF 393 renal,22.1 µM
same,TGI,SF-268 CNS,28.6 µM
same,TGI,SF-295 CNS,17.8 µM
same,TGI,SF-539 CNS,24.4 µM
same,TGI,SK-MEL-2 melanoma,30.2 µM
same,TGI,SK-MEL-28 melanoma,25.8 µM
same,TGI,SK-MEL-5 melanoma,22.4 µM
same,TGI,SK-OV-3 ovarian,29.1 µM
same,TGI,SN12C renal,24.7 µM
same,TGI,SNB-19 CNS,26.3 µM
same,TGI,SNB-75 CNS,29.3 µM
same,TGI,SR leukemia,13.4 µM
same,TGI,SW-620 colon,17.2 µM
same,TGI,T-47D breast,32.6 µM
same,TGI,TK-10 renal,30.1 µM
same,TGI,U251 CNS,20.3 µM
same,TGI,UACC-257 melanoma,25.8 µM
same,GI50,UACC-62 melanoma,6.02 µM
same,TGI,UACC-62 melanoma,19.4 µM
same,TGI,UO-31 renal,24.6 µM
